Measured values from patent US12410141B2, “Anti-cancer spirocyclic-guanidine compounds and uses thereof” (The Johns Hopkins University, priority 2020, dated 2025).

What was measured:
[1] = system: ES2 cells stably expressing 4UbFL; test: In vitro 4UbFL assay, ES2 cells; assay type: cell-based; conditions: ES2-4UbFL cells, two-fold dilution series, 4 hr
Experimental: Sub-confluent cultures of ES2 cells stably expressing 4UbFL were seeded at 10,000 cells/well in 96-well microtiter plates. At 18 hr post transfection, cells were treated with compounds or vehicle (DMSO) at the doses indicated. After a 4 hr incubation, the cells were lysed and the luciferase activity in each cell lysate was determined with a luciferase assay kit (Promega) according to the manufacturer's instructions. Bioluminescence was measured by using a luminometer (Glomax Multidetection system, Promega).
To measure RA475 on-target activity in live cells, the inventors used an expression vector for the reporter gene 4UbFL in which the gene for firefly luciferase (FL) is inserted in-frame 3′ to four copies of ubiquitin (PMID: 12819780). […] Proteasome inhibition stabilizes 4UbFL and thus increases the bioluminescence signal upon addition of luciferin substrate, and this can be measured by a luminometer (for cells) or visualized by IVIS imaging (for mice).
ES2 cells stably transfected with 4UbFL expression plasmid (ES2-4UbFL) were plated in a 96 well microtiter plate and 18 hr later treated with DMSO only as a negative control, or two-fold dilution series of either Up284 or RA475. After 4 hr medium was removed and the cells were lysed using luciferase lysis buffer and bioluminescence was measured using a luminometer after the addition of luciferin substrate.

[2] = Microsomal stability, mouse liver microsomes; assay type: in vitro ADME
Experimental: (§1) Human and mouse liver microsomes and NADPH regenerating system solutions were purchased from Corning Life Sciences (Tewsbury, MA). Human and mouse K2EDTA was purchased from BioIVT (Westbury, NY). Metabolic studies in liver microsomes (0.125 mg/mL) were conducted in 1× phosphate buffered saline (pH 7.4), NADPH-generating system, and 10 μM of RA475 in a final volume of 250 μl. An incubation mixture with and without NADPH-generating system as well as a neat solution without microsomes and NADPH-generating system were prepared. RA475 was added at the same concentration level into human and mouse EDTA plasma. All reactions were initiated with the addition of RA475. Incubations were performed in glass tubes maintained at 37° C. in a shaker bath. At 0, 30, and 60 minutes, 10 μL aliquots were sampled from the reaction mixture and 0.5 mL of acetonitrile containing internal standard (Up284) was added to each samples. Samples were vortex-mixed and underwent centrifugation for 5 min at 1430×g. A 10 μL aliquot of the supernatant was injected onto the LC-MS instrument for qualitative analysis using a temperature-controlled autosampling device operating at 5° C. Chromatographic analysis was performed using a Waters Acquity™ Ultra Performance LC. […] The mobile phase used for the chromatographic separation was composed of water (mobile phase A) and acetonitrile (mobile phase B) containing 0.1% (v/v) formic acid with a flow rate of 0.3 mL/min. The initial mobile phase composition was 80% mobile phase A and 20% mobile phase B. From 0.5 to 1 min, mobile phase B was increased linearly from 20% to 100%. From 1 to 3 min, mobile phase B was maintained at 100%. From 3.0 to 3.1 min, the gradient decreased to 20% mobile phase B and the conditions were maintained until 4.1 min to re-equilibrate the column for the next injection. The column effluent was monitored using an AB Sciex 5500 triple quadrupole mass spectrometer. The instrument was equipped with an electrospray interface, operated in a positive mode and controlled by the Analyst v1.6 software. For the stability study, the mass spectrometer was programmed to monitor the following MRM transition 408.2→366.1 for RA475 and 366.2→155.8 for UP284 (internal standard). Results were assessed qualitatively comparing the average area ratio of RA475 at 0 hr to area ratio at 30 and 60 minutes for both mouse and human liver microsomes. RA475 was not analyzed for metabolites due to the concentration of RA475 not decreasing.

[3] = Microsomal stability, human liver microsomes; assay type: in vitro ADME; conditions: for % Drug Remaining: Human Liver Microsomes
Experimental: as §1

Neat solution stability = assay type: physicochemical; conditions: 10 μM, 37° C.
Experimental: as §1

[4] = system: 4UbFL reporter in leg muscle of CD-1 mice; test: On-target activity in vivo using 4UbFL; parameters: species or system mouse; conditions: 40 mg/Kg single i.p. dose
Experimental: A patch was shaved of hair on one leg of CD-1 mice, and 10 μg 4UbFL plasmid in 20 μL of PBS was injected into the quadriceps femoralis muscle followed immediately by injection of the 2 Needle Array to 5 mm depth encompassing the injection site and square wave electroporation (ElectroSquarePorator 833, BTX-2 Needle array 5 mm gap, Harvard apparatus) delivered as eight pulses at 106V for 20 ms with 200 ms intervals. One day post electroporation, mice were anesthetized with isoflurane, injected i.p. with luciferin (0.3 mg in 100 μL water) and optical imaging was performed to determine basal level luciferase expression. Images were acquired for 10 min with a Xenogen IVIS 200 (Caliper, Hopkinton, MA). Equally sized areas were analyzed using Living Image 2.20 software. Mice were imaged weekly during treatment. Mice were randomized into three groups (n=5) and treated i.p. once with Vehicle (25% (w/v) β-Hydroxypropylcyclodextrin in water, Sigma Aldrich), RA475 (40 mg/Kg) and Up284 (40 mg/Kg) and mice were imaged again at 4 hr, 24 hr, 48 hr, 72 hr and 96 hr later.
To assess on-target activity in vivo, 4UbFL plasmid was injected into the muscle of one leg of CD-1 mice followed by electroporation. Luciferin was injected i.p. 24 hr later and the mice were tagged and imaged using an IVIS200 to visualize their basal bioluminescence. The mice were then immediately randomized to 3 groups and treated with vehicle alone (25% β-hydroxypropylcyclodextrin-water solution), RA475 (40 mg/Kg) and Up284 (40 mg/Kg) administered as a single i.p. dose. To examine the on-target activity, the mice were imaged again at 4 hr, 24 hr, 48 hr, 72 hr and 96 hr later.

[5] = Plasma stability, human EDTA plasma; assay type: in vitro ADME; conditions: 37° C.
Experimental: as §1

SMILES: N#Cc1ccc(/C=C2/C(=O)/C(=C/c3ccc(C#N)cc3)C23CCNCC3)cc1 [Up284, reference compound]
- bioluminescent signal of 4UbFL reporter [1]: significantly increased
- % Drug Remaining ([2]; NADPH Neg, 0 minutes): 100%
- % Drug Remaining ([2]; NADPH Neg, 30 minutes): 60%
- % Drug Remaining ([2]; NADPH Neg, 60 minutes): 51%
- % Drug Remaining ([2]; NADPH Pos, 0 minutes): 100%
- % Drug Remaining ([2]; NADPH Pos, 30 minutes): 45%
- % Drug Remaining ([2]; NADPH Pos, 60 minutes): 38%
- % Drug Remaining ([3]; NADPH Neg, 0 minutes): 100%
- % Drug Remaining ([3]; NADPH Neg, 30 minutes): 57%
- % Drug Remaining ([3]; NADPH Neg, 60 minutes): 52%
- % Drug Remaining ([3]; NADPH Pos, 0 minutes): 100%
- % Drug Remaining ([3]; NADPH Pos, 30 minutes): 43%
- % Drug Remaining ([3]; NADPH Pos, 60 minutes): 43%
- % Drug Remaining (Neat solution stability; 0 minutes): 100%
- % Drug Remaining (Neat solution stability; 30 minutes): 86%
- % Drug Remaining (Neat solution stability; 60 minutes): 78%
- increase in bioluminescence at the site of electroporation over baseline ([4]; 24 hr after administration): ~3 fold
- % Drug Remaining ([5]; 0 minutes): 100%
- % Drug Remaining ([5]; 30 minutes): 100%
- % Drug Remaining ([5]; 60 minutes): 90%

SMILES: Cl.Cl.N#Cc1ccc(/C=C2/C(=O)/C(=C/c3ccc(C#N)cc3)C23CCN(C(=N)N)CC3)cc1 [RA475]
- bioluminescent signal of 4UbFL reporter [1]: significantly increased
- % Drug Remaining ([2]; NADPH Neg, 0 minutes): 100%
- % Drug Remaining ([2]; NADPH Neg, 30 minutes): 90%
- % Drug Remaining ([2]; NADPH Neg, 60 minutes): 108%
- % Drug Remaining ([2]; NADPH Pos, 0 minutes): 100%
- % Drug Remaining ([2]; NADPH Pos, 30 minutes): 93%
- % Drug Remaining ([2]; NADPH Pos, 60 minutes): 98%
- % Drug Remaining ([3]; NADPH Neg, 0 minutes): 100%
- % Drug Remaining ([3]; NADPH Neg, 30 minutes): 99%
- % Drug Remaining ([3]; NADPH Neg, 60 minutes): 93%
- % Drug Remaining ([3]; NADPH Pos, 0 minutes): 100%
- % Drug Remaining ([3]; NADPH Pos, 30 minutes): 112%
- % Drug Remaining ([3]; NADPH Pos, 60 minutes): 102%
- maximal decrease of area ratio ([3]; human liver microsomes lacking NADPH regeneration solution): 7%
- % Drug Remaining (Neat solution stability; 0 minutes): 100%
- % Drug Remaining (Neat solution stability; 30 minutes): 108%
- % Drug Remaining (Neat solution stability; 60 minutes): 111%
- increase in bioluminescence at the site of electroporation over baseline ([4]; 4 hr after administration): 24 fold
- increase in bioluminescence at the site of electroporation over baseline ([4]; 24 hr after administration): 6 fold
- % Drug Remaining ([5]; 0 minutes): 100%
- % Drug Remaining ([5]; 30 minutes): 108%
- % Drug Remaining ([5]; 60 minutes): 107%
